Where a name gives a salt, the structure may show the parent alone.
target: full-length USP7 (Homo sapiens (Human), UniProt Q93009); experiment: Enzymatic assay to determine IC50 of USP7 inhibitors (Ubiquitin-Rhodamine 110 cleavage); assay type: biochemical; conditions: 0.5 nM USP7, 0.5 μM Ubiquitin-Rhodamine 110, 45 min at 37° C.
Outline: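 Enzyme: 0.5 nM full-length USP7 in HEPES pH 7.5 buffer with NaCl, DTT, BSA and Tween20, given 15 min at room temperature with DTT before compounds were added.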

Sequence of full-length USP7 (Q93009 whole entry): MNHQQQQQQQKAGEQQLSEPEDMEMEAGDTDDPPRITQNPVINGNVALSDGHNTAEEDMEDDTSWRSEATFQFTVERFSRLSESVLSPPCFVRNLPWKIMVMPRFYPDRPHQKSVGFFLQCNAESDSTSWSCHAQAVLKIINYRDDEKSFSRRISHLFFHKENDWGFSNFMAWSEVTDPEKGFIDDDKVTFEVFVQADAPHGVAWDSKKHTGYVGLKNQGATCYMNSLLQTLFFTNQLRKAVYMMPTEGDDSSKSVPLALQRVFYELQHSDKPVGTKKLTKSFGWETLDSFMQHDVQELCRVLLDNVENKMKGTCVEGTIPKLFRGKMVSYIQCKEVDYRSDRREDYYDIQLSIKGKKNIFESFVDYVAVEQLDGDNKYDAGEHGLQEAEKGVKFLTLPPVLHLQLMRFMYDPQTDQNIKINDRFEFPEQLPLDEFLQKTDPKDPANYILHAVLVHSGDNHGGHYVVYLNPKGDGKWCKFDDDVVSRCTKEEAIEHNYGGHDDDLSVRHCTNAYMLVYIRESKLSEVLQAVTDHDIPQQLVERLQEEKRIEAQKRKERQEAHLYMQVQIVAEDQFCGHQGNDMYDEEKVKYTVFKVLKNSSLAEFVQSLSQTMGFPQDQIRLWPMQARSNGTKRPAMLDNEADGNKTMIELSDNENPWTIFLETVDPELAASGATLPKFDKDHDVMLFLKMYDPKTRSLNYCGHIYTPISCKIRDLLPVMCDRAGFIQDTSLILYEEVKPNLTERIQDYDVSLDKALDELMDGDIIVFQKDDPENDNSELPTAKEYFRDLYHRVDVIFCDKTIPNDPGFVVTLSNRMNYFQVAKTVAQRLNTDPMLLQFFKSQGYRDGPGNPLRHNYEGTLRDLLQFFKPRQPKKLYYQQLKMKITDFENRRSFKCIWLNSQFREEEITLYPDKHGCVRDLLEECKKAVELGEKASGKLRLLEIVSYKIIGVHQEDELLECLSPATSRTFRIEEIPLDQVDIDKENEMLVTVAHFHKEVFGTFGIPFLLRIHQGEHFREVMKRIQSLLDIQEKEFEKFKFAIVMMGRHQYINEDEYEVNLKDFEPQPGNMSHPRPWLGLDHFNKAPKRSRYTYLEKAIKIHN

IC50	Structure (SMILES)
1 to 10 µM	Cc1cc(C#N)nc(-c2ccnc3cc(CN4C(=O)C5C(C4=O)C5(C)C)sc23)c1C(=O)N1CC[C@H](N(C)C)C1 (stereo partly drawn) [Example 44, 6-(2-((6,6-dimethyl-2,4-dioxo-3-azabicyclo[3.1.0]hexan-3-yl)methyl)thieno[3,2-b]pyridin-7-yl)-5-((S)-3-(dimethylamino)pyrrolidine-1-carbonyl)-4-methylpicolinonitrile hydrochloride]
< 0.5 µM	Cc1cc(C#N)nc(-c2ccnc3cc(CN4C(=O)C5C(C4=O)C5(C)C)sc23)c1C(=O)N1CC(F)(F)C1 (stereo not shown) [Example 51, 5-(3,3-difluoroazetidine-1-carbonyl)-6-(2-((6,6-dimethyl-2,4-dioxo-3-azabicyclo[3.1.0]hexan-3-yl)methyl)thieno[3,2-b]pyridin-7-yl)-4-methylpicolinonitrile hydrochloride]
< 0.5 µM	Cc1cc(C#N)nc(-c2ccnc3cc(CN4C(=O)C5C(C4=O)C5(C)C)sc23)c1C(=O)N1CCN(C)C[C@@H]1C (stereo partly drawn) [Example 52, 6-(2-((6,6-dimethyl-2,4-dioxo-3-azabicyclo[3.1.0]hexan-3-yl)methyl)thieno[3,2-b]pyridin-7-yl)-5-((S)-2,4-dimethylpiperazine-1-carbonyl)-4-methylpicolinonitrile dihydrochloride]
1 to 10 µM	Cc1cc(C#N)nc(-c2ccnc3cc(CN4C(=O)C5C(C4=O)C5(C)C)sc23)c1C(=O)N1CCNC(C)(C)C1 (stereo not shown) [Example 53, 6-(2-((6,6-dimethyl-2,4-dioxo-3-azabicyclo[3.1.0]hexan-3-yl)methyl)thieno[3,2-b]pyridin-7-yl)-5-(3,3-dimethylpiperazine-1-carbonyl)-4-methylpicolinonitrile hydrochloride]
0.5 to 1 µM	Cc1cc(C#N)nc(-c2ccnc3cc(CN4C(=O)C5C(C4=O)C5(C)C)sc23)c1C(=O)N1CCNC[C@H]1C (stereo partly drawn) [Example 54, 6-(2-((6,6-dimethyl-2,4-dioxo-3-azabicyclo[3.1.0]hexan-3-yl)methyl)thieno[3,2-b]pyridin-7-yl)-4-methyl-5-((R)-2-methylpiperazine-1-carbonyl)picolinonitrile hydrochloride]
< 0.5 µM	Cc1cc(C#N)nc(-c2ccnc3cc(CN4C(=O)C5C(C4=O)C5(C)C)sc23)c1C(=O)N1CCNCC1 (stereo not shown) [Example 55, 6-(2-((6,6-dimethyl-2,4-dioxo-3-azabicyclo[3.1.0]hexan-3-yl)methyl)thieno[3,2-b]pyridin-7-yl)-4-methyl-5-(piperazine-1-carbonyl)picolinonitrile hydrochloride]
1 to 10 µM	Cc1cc(C#N)nc(-c2ccnc3cc(CN4C(=O)C5C(C4=O)C5(C)C)sc23)c1C(=O)NC1CNC1 (stereo not shown) [Example 56, N-(azetidin-3-yl)-6-cyano-2-(2-((6,6-dimethyl-2,4-dioxo-3-azabicyclo[3.1.0]hexan-3-yl)methyl)thieno[3,2-b]pyridin-7-yl)-4-methylnicotinamide hydrochloride]
0.5 to 1 µM	Cc1cc(C#N)nc(-c2ccnc3cc(CN4C(=O)C5C(C4=O)C5(C)C)sc23)c1C(=O)N1CCOCC1 (stereo not shown) [Example 58, 6-(2-((6,6-dimethyl-2,4-dioxo-3-azabicyclo[3.1.0]hexan-3-yl)methyl)thieno[3,2-b]pyridin-7-yl)-4-methyl-5-(morpholine-4-carbonyl)picolinonitrile hydrochloride]
< 0.5 µM	Cc1cc(C#N)nc(-c2ccnc3cc(CN4C(=O)C5C(C4=O)C5(C)C)sc23)c1C(=O)N1CCC(F)(F)C1 (stereo not shown) [Example 59, 5-(3,3-difluoropyrrolidine-1-carbonyl)-6-(2-((6,6-dimethyl-2,4-dioxo-3-azabicyclo[3.1.0]hexan-3-yl)methyl)thieno[3,2-b]pyridin-7-yl)-4-methylpicolinonitrile hydrochloride]
> 10 µM	CNCC(=O)Nc1c(-c2ccnc3cc(CN4C(=O)C5C(C4=O)C5(C)C)sc23)cc(C(F)(F)F)nc1C (stereo not shown) [Example 60, N-(4-(2-((6,6-dimethyl-2,4-dioxo-3-azabicyclo[3.1.0]hexan-3-yl)methyl)thieno[3,2-b]pyridin-7-yl)-2-methyl-6-(trifluoromethyl)pyridin-3-yl)-2-(methylamino)acetamide 2,2,2-trifluoroacetate]
> 10 µM	COCC(=O)Nc1c(-c2ccnc3cc(CN4C(=O)C5C(C4=O)C5(C)C)sc23)cc(C(F)(F)F)nc1C (stereo not shown) [Example 61, N-(4-(2-((6,6-dimethyl-2,4-dioxo-3-azabicyclo[3.1.0]hexan-3-yl)methyl)thieno[3,2-b]pyridin-7-yl)-2-methyl-6-(trifluoromethyl)pyridin-3-yl)-2-methoxyacetamide 2,2,2-trifluoroacetate]
1 to 10 µM	Cc1nc(C(F)(F)F)cc(-c2ccnc3cc(CN4C(=O)C5C(C4=O)C5(C)C)sc23)c1NC(=O)C(F)(F)F (stereo not shown) [Example 62, N-(4-(2-((6,6-dimethyl-2,4-dioxo-3-azabicyclo[3.1.0]hexan-3-yl)methyl)thieno[3,2-b]pyridin-7-yl)-2-methyl-6-(trifluoromethyl)pyridin-3-yl)-2,2,2-trifluoroacetamide 2,2,2-trifluoroacetate]
> 10 µM	Cc1nc(C(F)(F)F)cc(-c2ccnc3cc(CN4C(=O)C5C(C4=O)C5(C)C)sc23)c1NC(=O)c1cccnc1 (stereo not shown) [Example 63, N-(4-(2-((6,6-dimethyl-2,4-dioxo-3-azabicyclo[3.1.0]hexan-3-yl)methyl)thieno[3,2-b]pyridin-7-yl)-2-methyl-6-(trifluoromethyl)pyridin-3-yl)nicotinamide 2,2,2-trifluoroacetate]
1 to 10 µM	Cc1nc(C(F)(F)F)cc(-c2ccnc3cc(CN4C(=O)C5C(C4=O)C5(C)C)sc23)c1NC(=O)C1CNC1 (stereo not shown) [Example 66, N-(4-(2-((6,6-dimethyl-2,4-dioxo-3-azabicyclo[3.1.0]hexan-3-yl)methyl)thieno[3,2-b]pyridin-7-yl)-2-methyl-6-(trifluoromethyl)pyridin-3-yl)azetidine-3-carboxamide 2,2,2-trifluoroacetate]
0.5 to 1 µM	Cc1cc(C(F)(F)F)nc(-c2ccnc3cc(CN4C(=O)C5C(C4=O)C5(C)C)sc23)c1C(=O)NC1CNC1 (stereo not shown) [Example 70, N-(azetidin-3-yl)-2-(2-((6,6-dimethyl-2,4-dioxo-3-azabicyclo[3.1.0]hexan-3-yl)methyl)thieno[3,2-b]pyridin-7-yl)-4-methyl-6-(trifluoromethyl)nicotinamide dihydrochloride]

same assay, conditions: at 1 μM of the test compound; given where IC50 not determined yet; read-out: percent value of inhibition of USP7 activity

inhibition at 1 µM	Structure (SMILES)
50 to 70%	Cc1cc(C#N)nc(-c2ccnc3cc(CN4C(=O)C5C(C4=O)C5(C)C)sc23)c1C(=O)N1CC(N(C)C)C1 (stereo not shown) [Example 43, 6-(2-((6,6-dimethyl-2,4-dioxo-3-azabicyclo[3.1.0]hexan-3-yl)methyl)thieno[3,2-b]pyridin-7-yl)-5-(3-(dimethylamino)azetidine-1-carbonyl)-4-methylpicolinonitrile]
< 20%	Cc1ccnc(-c2ccnc3cc(CN4C(=O)C5C(C4=O)C5(C)C)sc23)c1C(=O)N1CCNCC1 (stereo not shown) [Example 45, 6,6-dimethyl-3-((7-(4-methyl-3-(piperazine-1-carbonyl)pyridin-2-yl)thieno[3,2-b]pyridin-2-yl)methyl)-3-azabicyclo[3.1.0]hexane-2,4-dione hydrochloride]
< 20%	Cc1ccnc(-c2ccnc3cc(CN4C(=O)C5C(C4=O)C5(C)C)sc23)c1CN1CCNCC1 (stereo not shown) [Example 46, 6,6-dimethyl-3-((7-(4-methyl-3-(piperazin-1-ylmethyl)pyridin-2-yl)thieno[3,2-b]pyridin-2-yl)methyl)-3-azabicyclo[3.1.0]hexane-2,4-dione hydrochloride]
< 20%	Cc1ccnc(-c2ccnc3cc(CN4C(=O)C5C(C4=O)C5(C)C)sc23)c1C(=O)N1CCOCC1 (stereo not shown) [Example 48, 6,6-dimethyl-3-((7-(4-methyl-3-(morpholine-4-carbonyl)pyridin-2-yl)thieno[3,2-b]pyridin-2-yl)methyl)-3-azabicyclo[3.1.0]hexane-2,4-dione hydrochloride]
< 20%	Cc1ccnc(-c2ccnc3cc(CN4C(=O)C5C(C4=O)C5(C)C)sc23)c1C(=O)N1CCC(F)(F)C1 (stereo not shown) [Example 49, 3-((7-(3-(3,3-difluoropyrrolidine-1-carbonyl)-4-methylpyridin-2-yl)thieno[3,2-b]pyridin-2-yl)methyl)-6,6-dimethyl-3-azabicyclo[3.1.0]hexane-2,4-dione hydrochloride]
< 20%	Cc1ccnc(-c2ccnc3cc(CN4C(=O)C5C(C4=O)C5(C)C)sc23)c1C(=O)N1CC(F)(F)C1 (stereo not shown) [Example 50, 3-((7-(3-(3,3-difluoroazetidine-1-carbonyl)-4-methylpyridin-2-yl)thieno[3,2-b]pyridin-2-yl)methyl)-6,6-dimethyl-3-azabicyclo[3.1.0]hexane-2,4-dione hydrochloride]
< 20%	Cc1cc(C#N)nc(-c2ccnc3cc(CN4C(=O)C5C(C4=O)C5(C)C)sc23)c1C(=O)NC1CC(F)(F)C1 (stereo not shown) [Example 57, 6-cyano-N-(3,3-difluorocyclobutyl)-2-(2-((6,6-dimethyl-2,4-dioxo-3-azabicyclo[3.1.0]hexan-3-yl)methyl)thieno[3,2-b]pyridin-7-yl)-4-methylnicotinamide hydrochloride]
< 20%	Cc1nc2c(-c3cc(Cl)cc(C)c3O[C@H]3CCCNC3)ccnc2[nH]1 [Example 67, (S)-7-(5-chloro-3-methyl-2-(piperidin-3-yloxy)phenyl)-2-methyl-3H-imidazo[4,5-b]pyridine hydrochloride]
< 20%	Cc1cc(Cl)cc(-c2ccnc3c2nc(C)n3C)c1O[C@H]1CCCNC1 [Example 68, (S)-7-(5-chloro-3-methyl-2-(piperidin-3-yloxy)phenyl)-2,3-dimethyl-3H-imidazo[4,5-b]pyridine hydrochloride]
< 20%	Cc1cc(Cl)cc(-c2ccnc3nc(C)n(C)c23)c1O[C@H]1CCCNC1 [Example 69, (S)-7-(5-chloro-3-methyl-2-(piperidin-3-yloxy)phenyl)-1,2-dimethyl-1H-imidazo[4,5-b]pyridine hydrochloride]

— patent US12404279B2, “Deubiquitinase inhibitors and methods of use thereof” (Molecure S.A., priority 2021, dated 2025)
